In PubChem BioAssay AID652215 (Vanderbilt Specialized Chemistry Center, 2013):
Active and inactive are the calls of the source.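 How the source made its calls: active means activity score of 50 or more, meaning choline uptake cut by at least half versus untreated control; inactive means the rest.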

Molecular target: High affinity choline transporter 1 (Homo sapiens) (UniProt Q9GZV3)
Assay: choline transporter uptake block, single concentration – cell-based, HEK-293 hCHT LV-AA, [3H]-choline, mechanism study for choline transporter inhibitor project, SAR follow-up (AID 652215)
Details: [3H]-choline uptake, 15 min, at 5 µM, stronger effect = lower value; for activity remaining, high choline: measured here: 10 uM choline uptake

Sequence of High affinity choline transporter 1 (Homo sapiens) (Q9GZV3 whole entry, looked up): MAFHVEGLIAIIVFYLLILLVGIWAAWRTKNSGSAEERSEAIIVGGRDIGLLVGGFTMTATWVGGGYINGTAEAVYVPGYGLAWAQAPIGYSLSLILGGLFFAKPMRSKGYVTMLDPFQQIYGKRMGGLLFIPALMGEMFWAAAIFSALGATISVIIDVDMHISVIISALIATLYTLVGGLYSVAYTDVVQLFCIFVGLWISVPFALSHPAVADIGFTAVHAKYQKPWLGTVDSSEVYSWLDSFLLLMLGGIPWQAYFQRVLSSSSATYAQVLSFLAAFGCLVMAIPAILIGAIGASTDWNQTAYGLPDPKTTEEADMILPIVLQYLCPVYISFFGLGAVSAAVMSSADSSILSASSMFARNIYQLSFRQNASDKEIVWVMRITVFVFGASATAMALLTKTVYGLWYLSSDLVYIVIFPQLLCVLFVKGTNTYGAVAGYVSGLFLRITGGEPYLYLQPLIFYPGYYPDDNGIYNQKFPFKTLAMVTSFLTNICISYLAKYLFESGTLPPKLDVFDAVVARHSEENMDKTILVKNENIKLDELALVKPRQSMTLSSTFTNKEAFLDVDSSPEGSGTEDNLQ

| activity remaining, low choline | activity remaining, high choline | Compound |
| --- | --- | --- |
| 85.6% (inactive) | 88.8% | CCCCOc1cc(C(=O)NCc2cc(C(C)C)no2)ccc1OC |
| 9.91% | 66.3% | COc1ccc(C(=O)NCC[C@@H]2C[C@@H]3C=C[C@H]2C3)cc1OC1CCN(C(C)C)CC1 |
| 52.7% (inactive) | 83.6% | COc1ccc(CNC(=O)c2ccc(OC)c(OC3CCN(C(C)C)CC3)c2)cc1OC |
| 93.9% (inactive) | 78.2% | CCOc1cc(C(=O)NCc2cc(C(C)C)no2)ccc1OC |
| 52.4% (inactive) | 60.8% | COc1ccc(C(=O)NCCCn2ccnc2)cc1OC1CCN(C(C)C)CC1 |
| 92.9% (inactive) | 71% | CCc1cc(CNC(=O)c2ccc(OC)c(OC3CCN(C(C)C)CC3)c2)on1 |
| 90% (inactive) | 107% | CCc1cc(CNC(=O)c2ccc(OC)c(OCc3ccccc3)c2)on1 |
| 92.3% (inactive) | 62.3% | CCCCOc1cc(C(=O)NCc2cc(CC)no2)ccc1OC |
| 13.1% | 73.4% | COc1ccc(C(=O)N[C@H]2CCCCNC2=O)cc1OC1CCN(C(C)C)CC1 |
| 29.4% | 60.9% | COc1ccc(C(=O)NCc2cccc(C)c2)cc1OC1CCN(C(C)C)CC1 |
| 98% (inactive) | 99.4% | CCc1cc(CNC(=O)c2ccc(OC)c(OC3CCCC3)c2)on1 |
| 57.1% (inactive) | 73.9% | COc1ccc(C(=O)NC(C)c2cn(C)nc2C)cc1OC1CCN(C(C)C)CC1 (configuration not stated) |
| 15.9% | 58% | COc1ccc(C(=O)NCCc2c[nH]c3ccccc23)cc1OC1CCN(C(C)C)CC1 |
| 80.3% (inactive) | 84.5% | COc1ccc(C(=O)NCCN2CCCCC2=O)cc1OC1CCN(C(C)C)CC1 |
| 72.2% (inactive) | 78.8% | COc1ccc(C(=O)NC2CCCCC2)cc1OC1CCN(C(C)C)CC1 |
| 36.7% | 88.3% | COc1ccc(C(=O)NCCc2cnn(C)c2)cc1OC1CCN(C(C)C)CC1 |
| 92.3% (inactive) | 88.5% | CCc1cc(CNC(=O)c2ccc(OC)c(OC(=O)c3ccc(OC)c(O)c3)c2)on1 |
| 87.3% (inactive) | 95.5% | COc1ccc(C(=O)NCc2cc(C(C)C)no2)cc1OCc1cccnc1 |
| 80% (inactive) | 74.5% | COc1ccc(C(=O)NCC2CCOCC2)cc1OC1CCN(C(C)C)CC1 |
| 22.7% | 38.2% | CCc1cc(CNC(=O)c2ccc(OC)c(OCCN3CCCCC3)c2)on1 |
| 67.3% (inactive) | 59.6% | COc1ccc(C(=O)NCc2cc(C(C)C)no2)cc1OCCCN(C)C |
| 85.9% (inactive) | 83.8% | COc1ccc(C(=O)NCc2cc(C(C)C)no2)cc1OCc1ccncc1 |
| 59.3% (inactive) | 71.4% | CCc1cc(CNC(=O)c2ccc(OC)c(OCCN3CCCC3)c2)on1 |
| 87.2% (inactive) | 83% | COc1ccc(C(=O)NCc2cc(C(C)C)no2)cc1OCC1CCCCC1 |
| 91.1% (inactive) | 70.2% | CCc1cc(CNC(=O)c2ccc(OC)c(OCC3CCC3)c2)on1 |
| 94.9% (inactive) | 92.7% | COc1ccc(C(=O)NCc2cc(C(C)C)no2)cc1OCC1CCC1 |

| activity remaining, low choline | activity remaining, high choline | Compound |
| --- | --- | --- |
| 34.1% | 72.1% | COc1ccc(C(=O)NC(C)c2nccs2)cc1OC1CCN(C(C)C)CC1 (configuration not stated) |
| 71.2% (inactive) | 82.8% | COc1ccc(C(=O)NCCc2ccncc2)cc1OC1CCN(C(C)C)CC1 |
| 69.2% (inactive) | 78.9% | CCc1cc(CNC(=O)c2ccc(OC)c(OCCN3CCOCC3)c2)on1 |
| 35.3% | 81% | COc1ccc(C(=O)NCc2ccc(Cl)s2)cc1OC1CCN(C(C)C)CC1 |
| 20.4% | 77.5% | COc1ccc(C(=O)NCCCn2cccn2)cc1OC1CCN(C(C)C)CC1 |
| 33.1% | 57% | COc1ccc(C(=O)NCc2cnn(C)c2C)cc1OC1CCN(C(C)C)CC1 |
| 94.5% (inactive) | 72% | CCc1cc(CNC(=O)c2ccc(OC)c(OCc3cccnc3)c2)on1 |
| 32.9% | 64.8% | COc1ccc(C(=O)NCc2ccccc2C)cc1OC1CCN(C(C)C)CC1 |
| 89.4% (inactive) | 99.8% | COc1ccc(C(=O)NCc2cc(C(C)C)no2)cc1OC(C)C |
| 86.8% (inactive) | 84.5% | COCCOc1cc(C(=O)NCc2cc(C(C)C)no2)ccc1OC |
| 56.5% (inactive) | 67.1% | CCc1cc(CNC(=O)c2ccc(OC)c(OC3CCCN(C)C3)c2)on1 (configuration not stated) |
| 90.2% (inactive) | 102% | CCc1cc(CNC(=O)c2ccc(OC)c(OCc3ccccn3)c2)on1 |
| 86.4% (inactive) | 87.1% | CCOc1cc(C(=O)NCc2cc(CC)no2)ccc1OC |
| 62.2% (inactive) | 94.7% | CCc1cc(CNC(=O)c2ccc(OC)c(OC3CCNCC3)c2)on1 |
| 29.7% | 101% | COc1ccc(C(=O)N[C@H]2CC[C@H](O)CC2)cc1OC1CCN(C(C)C)CC1 |
| 43.1% | 71.2% | COc1ccc(C(=O)NCC(C)Oc2cccnc2)cc1OC1CCN(C(C)C)CC1 (configuration not stated) |
| 77.1% (inactive) | 57.9% | CCc1cc(CNC(=O)c2ccc(OC)c(OC(C)CN(C)C)c2)on1 (configuration not stated) |
| 7.98% | 56.4% | CCc1cc(CNC(=O)c2ccc(OC)c(OC3CCN(C)CC3)c2)on1 |
| 71.9% (inactive) | 67.1% | COc1ccc(C(=O)NCC2OCCc3ccccc32)cc1OC1CCN(C(C)C)CC1 (configuration not stated) |
| 89.1% (inactive) | 80.6% | CCc1cc(CNC(=O)c2ccc(OC)c(OCCOC)c2)on1 |
| 90.8% (inactive) | 97.2% | COc1ccc(C(=O)NCc2cc(C(C)C)no2)cc1OCc1ccccc1 |
| 41.8% | 97.6% | COc1ccc(C(=O)NCCN2CCOC2=O)cc1OC1CCN(C(C)C)CC1 |
| 46% | 83.3% | COc1ccc(C(=O)NCc2ccon2)cc1OC1CCN(C(C)C)CC1 |
| 93.7% (inactive) | 90.1% | CCc1cc(CNC(=O)c2ccc(OC)c(O)c2)on1 |
| 87.2% (inactive) | 100% | COc1ccc(C(=O)NCc2cc(C(C)C)no2)cc1OCc1ccccn1 |
